In PubChem BioAssay (NCI) one finds TGI data, which are given here for eleven compounds.

In general, TGI refers to the concentration at which net growth stops.

Some test systems named below: SNB-75 CNS; HOP-62 NSCLC; UO-31 renal; EKVX NSCLC; MDA-N; SR leukemia; CCRF-CEM leukemia; OVCAR-3 ovarian; NCI-H522 lung; NCI-H226 lung; TK-10 renal; RPMI-8226 leukemia.
Common to all, as to experiment: DTP human tumour cell line panel, 48 h

Each structure is given as a SMILES string.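 48-hour exposure; five concentrations; linearly interpolated endpoints. At the TGI there is no net growth.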

On to `O=P1(Cc2ccccc2)N(Cc2ccccc2)[C@@H]2CCCC[C@H]2N1Cc1ccccc1`, for which the TGI was 21.1 µM with SNB-75 CNS; 32.2 µM with HOP-62 NSCLC; 19.7 µM with UO-31 renal; 22.4 µM in the test with EKVX NSCLC; 19.8 µM with MDA-N; 8.06 µM in the test on SR leukemia. For the same compound, the TGI turned out to be 32.3 µM in the test with CCRF-CEM leukemia; 20.9 µM with OVCAR-3 ovarian; 14.4 µM with NCI-H522 lung; 4.63 µM in the test with NCI-H226 lung; 26.7 µM in the test on TK-10 renal.

For `CCOC(=O)c1ccc(-c2ccc(Cl)cc2)[nH]1`, the TGI in the test with SNB-75 CNS, with UO-31 renal, in the test on EKVX NSCLC, with MDA-N, with SR leukemia and in the test on CCRF-CEM leukemia was greater than 10 µM in each case. Further, the TGI with OVCAR-3 ovarian, with NCI-H522 lung, in the test with NCI-H226 lung and with TK-10 renal was greater than 10 µM throughout.

On to `CN1CCCOC(c2ccc(Cl)cc2)O1` (configuration not stated), for which the TGI with SNB-75 CNS, in the test on HOP-62 NSCLC, with UO-31 renal, in the test on EKVX NSCLC, in the test on MDA-N and in the test on SR leukemia was greater than 100 µM throughout. Also, the TGI with CCRF-CEM leukemia, in the test on OVCAR-3 ovarian, with NCI-H522 lung, in the test on NCI-H226 lung and in the test with TK-10 renal was greater than 100 µM throughout.

Turning to `CCOC(=O)CCC1(CCC(=O)OCC)CCCCCCCCC(CCC(=O)OCC)(CCC(=O)OCC)C(=O)C1=O`, the TGI with SNB-75 CNS, in the test with HOP-62 NSCLC, in the test on EKVX NSCLC, in the test with MDA-N, with SR leukemia and in the test on OVCAR-3 ovarian was greater than 100 µM each time. Besides, the TGI in the test on NCI-H522 lung, in the test with NCI-H226 lung and in the test with TK-10 renal was greater than 100 µM in each case.

Take `O=C1CC(=O)NC(=NN2C(=O)/C(=C/c3ccc(Cl)c(Cl)c3)N=C2c2ccccc2)N1`: the TGI in the test with SNB-75 CNS was 81.8 µM; in the test with HOP-62 NSCLC, 79.6 µM; with UO-31 renal, greater than 100 µM; with MDA-N it was 90.7 µM; with SR leukemia, 36.3 µM; with CCRF-CEM leukemia, 45.3 µM. Moreover, the TGI in the test with RPMI-8226 leukemia was 47 µM; in the test with OVCAR-3 ovarian, 49.4 µM; in the test on NCI-H522 lung, 86 µM; in the test on NCI-H226 lung it was greater than 100 µM; with TK-10 renal it was greater than 100 µM.

`COc1cccc(-c2nc(-c3cnccn3)n(C/C=C/c3ccccc3)n2)c1`: the TGI with SNB-75 CNS, in the test on UO-31 renal, with EKVX NSCLC, in the test with MDA-N, in the test with SR leukemia and in the test with CCRF-CEM leukemia was greater than 10 µM throughout. Further, the TGI with OVCAR-3 ovarian, in the test on NCI-H522 lung, in the test on NCI-H226 lung and in the test with TK-10 renal was greater than 10 µM each time.

Consider `CC1(C)OP(=O)(O)C=C1Sc1ccc([N+](=O)[O-])cc1[N+](=O)[O-]`, for which the TGI with SNB-75 CNS, in the test with HOP-62 NSCLC, in the test with EKVX NSCLC, in the test with MDA-N, with SR leukemia and in the test on OVCAR-3 ovarian was greater than 100 µM throughout. Also, the TGI with NCI-H522 lung, with NCI-H226 lung and in the test on TK-10 renal was greater than 100 µM in each case.

Regarding `S=C1NCCN1C(=S)Nc1ccccc1`, the TGI in the test on SNB-75 CNS, with HOP-62 NSCLC, in the test with UO-31 renal, in the test with EKVX NSCLC, in the test with MDA-N and in the test with SR leukemia was greater than 100 µM in each case. For the same compound, the TGI in the test on CCRF-CEM leukemia, in the test on OVCAR-3 ovarian, in the test with NCI-H522 lung, in the test with NCI-H226 lung and with TK-10 renal was greater than 100 µM each time.

For the compound `O=c1cc(NNc2cccc(Cl)c2)[nH]c(=O)[nH]1`, the TGI in the test with SNB-75 CNS is greater than 100 µM; in the test on UO-31 renal, greater than 100 µM; in the test on MDA-N it was greater than 100 µM; in the test on SR leukemia, greater than 100 µM; in the test with CCRF-CEM leukemia, 68.8 µM; with RPMI-8226 leukemia it was 56.1 µM. For the same compound, the TGI is 31.2 µM in the test with OVCAR-3 ovarian, 34.4 µM in the test on NCI-H522 lung, greater than 100 µM in the test on NCI-H226 lung and 36.2 µM in the test on TK-10 renal.

For the compound `Cn1nnnc1SC(F)(F)c1nc2ccccc2o1`, the TGI with SNB-75 CNS, in the test with HOP-62 NSCLC, in the test with UO-31 renal, with MDA-N, in the test on SR leukemia and in the test with CCRF-CEM leukemia was greater than 100 µM each time. The TGI in the test with RPMI-8226 leukemia, with OVCAR-3 ovarian, in the test with NCI-H522 lung, in the test on NCI-H226 lung and in the test on TK-10 renal was greater than 100 µM throughout.

As for `CC(=O)OCC1OC(n2c(C)c(N=Nc3ccc(Cl)cc3)c(C)c(C#N)c2=S)C(OC(C)=O)C(OC(C)=O)C1OC(C)=O` (configuration not stated), the TGI with SNB-75 CNS was 49.1 µM; in the test with HOP-62 NSCLC, 51.7 µM; with UO-31 renal it was greater than 100 µM; in the test with MDA-N, greater than 100 µM; in the test with SR leukemia, greater than 100 µM; in the test with CCRF-CEM leukemia it was greater than 100 µM. For the same compound, the TGI with RPMI-8226 leukemia, in the test on OVCAR-3 ovarian and in the test on TK-10 renal was greater than 100 µM in each case.
